Experimental data published in patent publication US20190062305A1, “PYRIDYL OR PYRAZINYL COMPOUNDS CARRYING A METHYL-BOUND ALPHA-AMINO ACID AMIDE GROUP” (ABBVIE DEUTSCHLAND GMBH & CO. KG, priority 2015, published 2019).
Where a name gives a salt, the structure may show the parent alone.

Experiments:
5-HT2C receptor = target: T1, 5-HT2C receptor (Homo sapiens, UniProt P28335); experiment: Human 5-HT2C functional assay (beta-arrestin2 recruitment, U2OS_HTR2C_β-Arrestin cells); format: cell-based; conditions: for EC50: beta-arrestin2 recruitment, U2OS_HTR2C_β-Arrestin cells, 1.5 h incubation, read-out: EC50 5-HT2C (potency in functional assay); for Emax: relative efficacy vs response to 10 μM 5-HT or maximal 5-HT effect (100%)
T1 construct: host or cells: U2OS
Summary of the method: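 U2OS cells expressing HTR2C with β-galactosidase complementation, switched to 1% serum medium 24 h post-plating, were treated next day with compound for 1.5 h; chemiluminescence read. Response expressed as % of 10 µM 5-HT or maximal 5-HT effect; EC50 from 4-parameter variable-slope fit.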

[1] = Metabolic stability in human liver microsomes, unbound intrinsic clearance (Cl int/fu mic); format: in vitro ADME; conditions: human, liver microsomes, pH 7.4, human liver microsomes 0.25 mg/mL, 0.5 μM compound, NADPH, read-out: Cl int, mic unb. (h) [l/h/kg] (unbound intrinsic clearance, human)
Summary of the method: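 Compound (0.5 µM) was incubated with human liver microsomes (0.25 mg/mL) in pH 7.4 phosphate buffer at 37 °C with 1.0 mM NADPH, sampling from 0–30 min. Depletion was followed by LC-MS/MS, and CLint was derived from first-order t1/2 per mg protein. Microsomal unbound fraction came from 4 h equilibrium dialysis at 37 °C, giving CLint/fu mic.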

T1 sequence (P28335 33-458): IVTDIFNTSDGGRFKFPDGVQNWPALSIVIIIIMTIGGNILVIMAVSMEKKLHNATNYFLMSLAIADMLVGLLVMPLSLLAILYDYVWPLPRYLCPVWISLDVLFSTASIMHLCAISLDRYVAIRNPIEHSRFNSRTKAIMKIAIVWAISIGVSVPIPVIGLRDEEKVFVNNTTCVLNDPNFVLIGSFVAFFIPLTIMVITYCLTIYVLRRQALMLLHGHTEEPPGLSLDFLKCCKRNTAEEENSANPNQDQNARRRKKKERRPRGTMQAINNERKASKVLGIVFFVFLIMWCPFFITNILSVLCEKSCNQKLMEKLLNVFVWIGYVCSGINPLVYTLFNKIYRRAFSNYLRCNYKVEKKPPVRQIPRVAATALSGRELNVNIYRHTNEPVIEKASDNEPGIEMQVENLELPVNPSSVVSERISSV
T1 sequence (P32121 whole entry partner): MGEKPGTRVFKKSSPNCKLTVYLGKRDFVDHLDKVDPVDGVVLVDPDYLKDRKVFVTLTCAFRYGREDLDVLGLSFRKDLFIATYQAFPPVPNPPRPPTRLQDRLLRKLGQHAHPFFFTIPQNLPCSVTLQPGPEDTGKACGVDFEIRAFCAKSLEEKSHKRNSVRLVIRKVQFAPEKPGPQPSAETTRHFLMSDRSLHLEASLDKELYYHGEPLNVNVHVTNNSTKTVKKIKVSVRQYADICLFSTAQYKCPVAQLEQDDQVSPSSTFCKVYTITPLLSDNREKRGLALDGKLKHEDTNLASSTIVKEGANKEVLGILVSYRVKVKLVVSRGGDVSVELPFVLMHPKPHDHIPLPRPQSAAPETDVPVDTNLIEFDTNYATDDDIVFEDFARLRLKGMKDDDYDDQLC

Which EC50 (5-HT2C receptor) does the source give for `COc1nc(OC2CCC(CF)CC2)c(F)cc1CNC(=O)[C@@H]1CCCN1` (stereo partly drawn) [Example 75, (2S)—N-[[5-fluoro-6-[4-(fluoromethyl)cyclohexoxy]-2-methoxy-3-pyridyl]methyl]-pyrrolidine-2-carboxamide; 2,2,2-trifluoroacetic Acid] here?
Its EC50 is < 20 nM.

What about the Emax (5-HT2C receptor) of the same molecule?
The Emax was > 70%.

And the CLint scaled at 0.5 μM [1]?
Its CLint scaled at 0.5 μM is 5 to 50 L/h/kg.

What does the source list for `COc1nc(OCC2(C(F)(F)F)CC2)c(F)cc1CN(C)C(=O)[C@@H]1CCCN1` [Example 76, (2S)—N-[[5-Fluoro-2-methoxy-6-[[1-(trifluoromethyl)cyclopropyl]methoxy]-3-pyridyl]methyl]-N-methyl-pyrrolidine-2-carboxamide Hydrochloride]?
EC50 (5-HT2C receptor): < 20 nM; Emax (5-HT2C receptor): > 70%; CLint scaled at 0.5 μM [1]: < 5 L/h/kg

For `COc1nc(OCC2CC2(F)F)c(F)cc1CN(C)C(=O)[C@@H]1CCCN1` (stereo partly drawn) [Example 77, (2S)—N-[[6-[(2,2-Difluorocyclopropyl)methoxy]-5-fluoro-2-methoxy-3-pyridyl]-methyl]-N-methyl-pyrrolidine-2-carboxamide Hydrochloride], which EC50 (5-HT2C receptor) is on record?
Its EC50 is < 20 nM.

What about the Emax (5-HT2C receptor) of the same molecule?
The Emax was > 70%.

And the CLint scaled at 0.5 μM [1]?
The CLint scaled at 0.5 μM was < 5 L/h/kg.

With `COc1nc(OC2CC(F)(F)C2)c(F)cc1CN(C)C(=O)[C@@H]1CCCN1` [Example 78, (2S)—N-[[6-(3,3-Difluorocyclobutoxy)-5-fluoro-2-methoxy-3-pyridyl]methyl]-N-methyl-pyrrolidine-2-carboxamide Hydrochloride] as the molecule, how does the EC50 (5-HT2C receptor) read?
Its EC50 is < 20 nM.

And the Emax (5-HT2C receptor)?
Its Emax is > 70%.

What about the CLint scaled at 0.5 μM [1] of the same molecule?
Its CLint scaled at 0.5 μM is < 5 L/h/kg.

With `COc1nc(OC2CCC(C(F)(F)F)CC2)c(F)cc1CNC(=O)[C@H]1NC[C@H]1C` (stereo partly drawn) [Example 79, (2S,3R)—N-[[5-Fluoro-2-methoxy-6-[4-(trifluoromethyl)cyclohexoxy]-3-pyridyl]-methyl]-3-methyl-azetidine-2-carboxamide; Fumaric Acid] as the molecule, how does the EC50 (5-HT2C receptor) read?
The EC50 was 20 to 200 nM.

What about the Emax (5-HT2C receptor) of the same molecule?
The Emax was 30 to 50%.

What about the CLint scaled at 0.5 μM [1] of the same molecule?
The CLint scaled at 0.5 μM was 50 to 500 L/h/kg.

Which EC50 (5-HT2C receptor) does the source give for `COc1nc(OC2CCC(O)CC2)c(F)cc1CNC(=O)[C@@H]1CCCN1` (stereo partly drawn) [Example 81, (2S)—N-[[5-Fluoro-6-(4-hydroxycyclohexoxy)-2-methoxy-3-pyridyl]methyl]-pyrrolidine-2-carboxamide; 2,2,2-trifluoroacetic Acid] here?
Its EC50 is 200 to 1000 nM.

And the Emax (5-HT2C receptor)?
Its Emax is > 70%.

What about the CLint scaled at 0.5 μM [1] of the same molecule?
Its CLint scaled at 0.5 μM is < 5 L/h/kg.

Which EC50 (5-HT2C receptor) does the source give for `COc1nc(OC2CCC(C(F)(F)F)CC2)c(F)cc1CNC(=O)[C@@H]1C[C@H]2C[C@H]2N1` (stereo partly drawn) [Example 82, (1R,3 S,5R)—N-[[5-Fluoro-2-methoxy-6-[4-(trifluoromethyl)cyclohexoxy]-3-pyridyl]methyl]-4-azabicyclo[3.1.0]hexane-3-carboxamide] here?
Its EC50 is 20 to 200 nM.

What about the Emax (5-HT2C receptor) of the same molecule?
The Emax was > 70%.

And the CLint scaled at 0.5 μM [1]?
Its CLint scaled at 0.5 μM is 5 to 50 L/h/kg.

Which results are given for `COc1nc(OCC(F)F)c(F)cc1CNC(=O)[C@@H]1CCCN1` [Example 86, (2S)—N-[[6-(2,2-Difluoroethoxy)-5-fluoro-2-methoxy-3-pyridyl]methyl]pyrrolidine-2-carboxamide; 2,2,2-trifluoroacetic Acid]?
EC50 (5-HT2C receptor): < 20 nM; Emax (5-HT2C receptor): > 70%; CLint scaled at 0.5 μM [1]: < 5 L/h/kg

For `COc1nc(OCC(F)(F)F)c(F)cc1CNC(=O)[C@@H]1CCCN1` [Example 87, (2S)—N-[[5-Fluoro-2-methoxy-6-(2,2,2-trifluoroethoxy)-3-pyridyl]methyl]-pyrrolidine-2-carboxamide; 2,2,2-trifluoroacetic Acid], which EC50 (5-HT2C receptor) is on record?
The EC50 was < 20 nM.

And the Emax (5-HT2C receptor)?
Its Emax is > 70%.

What about the CLint scaled at 0.5 μM [1] of the same molecule?
The CLint scaled at 0.5 μM was < 5 L/h/kg.

What does the source list for `COc1nc(OCC2CC(F)(F)C2(F)F)c(F)cc1CNC(=O)[C@@H]1CCCN1C` (stereo partly drawn) [Example 90, (2S)—N-[[5-Fluoro-2-methoxy-6-[(2,2,3,3-tetrafluorocyclobutyl)methoxy]-3-pyridyl]methyl]-1-methyl-pyrrolidine-2-carboxamide Hydrochloride]?
EC50 (5-HT2C receptor): < 20 nM; Emax (5-HT2C receptor): > 70%; CLint scaled at 0.5 μM [1]: < 5 L/h/kg

Which EC50 (5-HT2C receptor) does the source give for `COc1nc(OCC(F)(F)C(F)F)c(F)cc1CNC(=O)[C@@H]1CCCN1C` [Example 91, (2S)—N-[[5-Fluoro-2-methoxy-6-(2,2,3,3-tetrafluoropropoxy)-3-pyridyl]methyl]-1-methyl-pyrrolidine-2-carboxamide Hydrochloride] here?
The EC50 was < 20 nM.

And the Emax (5-HT2C receptor)?
Its Emax is > 70%.

And the CLint scaled at 0.5 μM [1]?
The CLint scaled at 0.5 μM was < 5 L/h/kg.

Which results are given for `COc1nc(OCC2CC(F)(F)C2)c(F)cc1CNC(=O)[C@@H]1CCCN1C` [Example 92, (2S)—N-[[6-[(3,3-Difluorocyclobutyl)methoxy]-5-fluoro-2-methoxy-3-pyridyl]-methyl]-1-methyl-pyrrolidine-2-carboxamide Hydrochloride]?
EC50 (5-HT2C receptor): < 20 nM; Emax (5-HT2C receptor): > 70%; CLint scaled at 0.5 μM [1]: < 5 L/h/kg

Which EC50 (5-HT2C receptor) does the source give for `COc1nc(OC2CCCC2F)c(F)cc1CNC(=O)[C@@H]1CCCN1` (stereo partly drawn) [Example 93, (2S)—N-[[5-Fluoro-6-(2-fluorocyclopentoxy)-2-methoxy-3-pyridyl]methyl]-pyrrolidine-2-carboxamide; 2,2,2-trifluoroacetic Acid] here?
Its EC50 is < 20 nM.

And the Emax (5-HT2C receptor)?
The Emax was > 70%.

What about the CLint scaled at 0.5 μM [1] of the same molecule?
The CLint scaled at 0.5 μM was < 5 L/h/kg.

For `COc1nc(OC2CC(F)(F)C2)c(F)cc1CNC(=O)[C@@H]1C[C@@H](F)CN1` [Example 94, (2S,4R)—N-[[6-(3,3-Difluorocyclobutoxy)-5-fluoro-2-methoxy-3-pyridyl]methyl]-4-fluoro-pyrrolidine-2-carboxamide Hydrochloride], which EC50 (5-HT2C receptor) is on record?
The EC50 was < 20 nM.

And the Emax (5-HT2C receptor)?
Its Emax is > 70%.

What about the CLint scaled at 0.5 μM [1] of the same molecule?
The CLint scaled at 0.5 μM was < 5 L/h/kg.

For `COc1nc(OC2CCCC3C2C3(F)F)c(F)cc1CNC(=O)[C@@H]1CCCN1` (stereo partly drawn) [Example 95, (2S)—N-[[6-(7,7-Difluoronorcaran-2-yl)oxy-5-fluoro-2-methoxy-3-pyridyl]methyl]-pyrrolidine-2-carboxamide], which EC50 (5-HT2C receptor) is on record?
The EC50 was < 20 nM.

What about the Emax (5-HT2C receptor) of the same molecule?
The Emax was > 70%.

What about the CLint scaled at 0.5 μM [1] of the same molecule?
The CLint scaled at 0.5 μM was 5 to 50 L/h/kg.

Which results are given for `COc1nc(OCC2(C(F)F)CC2)c(F)cc1CNC(=O)[C@@H]1CCCN1C` [Example 96, (2S)—N-[[6-[[1-(Difluoromethyl)cyclopropyl]methoxy]-5-fluoro-2-methoxy-3-pyridyl]methyl]-1-methyl-pyrrolidine-2-carboxamide; (2S,3S)-2,3-dihydroxybutanedioic Acid]?
EC50 (5-HT2C receptor): < 20 nM; Emax (5-HT2C receptor): > 70%; CLint scaled at 0.5 μM [1]: < 5 L/h/kg

Which results are given for `COc1nc(OCC2(C(F)F)CC2)c(F)cc1CNC(=O)[C@@H]1CCCN1` [Example 97, (2S)—N-[[6-[[1-(Difluoromethyl)cyclopropyl]methoxy]-5-fluoro-2-methoxy-3-pyridyl]methyl]pyrrolidine-2-carboxamide; (2S,3S)-2,3-dihydroxybutanedioic Acid]?
EC50 (5-HT2C receptor): < 20 nM; Emax (5-HT2C receptor): > 70%; CLint scaled at 0.5 μM [1]: < 5 L/h/kg

What does the source list for `COc1nc(OCC2(C(F)(F)F)CC2)c(F)cc1CN(C)C(=O)[C@@H]1CCCN1C` [Example 98, (2S)—N-[[5-Fluoro-2-methoxy-6-[[1-(trifluoromethyl)cyclopropyl]methoxy]-3-pyridyl]methyl]-N,1-dimethyl-pyrrolidine-2-carboxamide Hydrochloride]?
EC50 (5-HT2C receptor): 20 to 200 nM; Emax (5-HT2C receptor): 50 to 70%; CLint scaled at 0.5 μM [1]: < 5 L/h/kg

What does the source list for `COc1nc(OC2CC(F)(F)C2)c(F)cc1CN(C)C(=O)[C@@H]1CCCN1C` [Example 99, (2S)—N-[[6-(3,3-Difluorocyclobutoxy)-5-fluoro-2-methoxy-3-pyridyl]methyl]-N,1-dimethyl-pyrrolidine-2-carboxamide Hydrochloride]?
EC50 (5-HT2C receptor): 20 to 200 nM; Emax (5-HT2C receptor): 50 to 70%; CLint scaled at 0.5 μM [1]: < 5 L/h/kg

What does the source list for `COc1nc(OCC(F)(F)F)c(F)cc1CNC(=O)[C@@H]1CCCN1C` [Example 100, (2S)—N-[[5-Fluoro-2-methoxy-6-(2,2,2-trifluoroethoxy)-3-pyridyl]methyl]-1-methyl-pyrrolidine-2-carboxamide Hydrochloride]?
EC50 (5-HT2C receptor): < 20 nM; Emax (5-HT2C receptor): > 70%; CLint scaled at 0.5 μM [1]: < 5 L/h/kg

What does the source list for `COc1nc(OC2CC(F)(F)C2)c(F)cc1CNC(=O)[C@H](C)N1CCC1` [Example 101, (2S)-2-(Azetidin-1-yl)-N-[[6-(3,3-difluorocyclobutoxy)-5-fluoro-2-methoxy-3-pyridyl]methyl]propanamide Hydrochloride]?
EC50 (5-HT2C receptor): < 20 nM; Emax (5-HT2C receptor): > 70%; CLint scaled at 0.5 μM [1]: < 5 L/h/kg

With `COc1nc(OCC(F)(F)C(F)F)c(F)cc1CN(C)C(=O)[C@@H]1CCCN1C` [Example 102, (2S)—N-[[5-Fluoro-2-methoxy-6-(2,2,3,3-tetrafluoropropoxy)-3-pyridyl]methyl]-N,1-dimethyl-pyrrolidine-2-carboxamide Hydrochloride] as the molecule, how does the EC50 (5-HT2C receptor) read?
Its EC50 is 200 to 1000 nM.

What about the Emax (5-HT2C receptor) of the same molecule?
The Emax was 50 to 70%.

What about the CLint scaled at 0.5 μM [1] of the same molecule?
The CLint scaled at 0.5 μM was < 5 L/h/kg.

Which EC50 (5-HT2C receptor) does the source give for `COc1nc(OCC2CC(F)(F)C2(F)F)c(F)cc1CN(C)C(=O)[C@@H]1CCCN1C` (stereo partly drawn) [Example 103, (2S)—N-[[5-Fluoro-2-methoxy-6-[(2,2,3,3-tetrafluorocyclobutyl)methoxy]-3-pyridyl]methyl]-N,1-dimethyl-pyrrolidine-2-carboxamide Hydrochloride] here?
The EC50 was 20 to 200 nM.

And the Emax (5-HT2C receptor)?
Its Emax is 50 to 70%.

And the CLint scaled at 0.5 μM [1]?
Its CLint scaled at 0.5 μM is < 5 L/h/kg.

For `COc1nc(OC2CC(OC)C2)c(F)cc1CNC(=O)[C@@H]1CCCN1` (stereo partly drawn) [Example 104, (2S)—N-[[5-Fluoro-2-methoxy-6-(3-methoxycyclobutoxy)-3-pyridyl]methyl]-pyrrolidine-2-carboxamide Hydrochloride], which EC50 (5-HT2C receptor) is on record?
The EC50 was < 20 nM.

What about the Emax (5-HT2C receptor) of the same molecule?
Its Emax is > 70%.

And the CLint scaled at 0.5 μM [1]?
Its CLint scaled at 0.5 μM is < 5 L/h/kg.

With `COc1nc(OC2CC(C(F)(F)F)C2)c(F)cc1CNC(=O)[C@@H]1CCCN1` (stereo partly drawn) [Example 105, (2S)—N-[[5-Fluoro-2-methoxy-6-[3-(trifluoromethyl)cyclobutoxy]-3-pyridyl]-methyl]pyrrolidine-2-carboxamide Hydrochloride] as the molecule, how does the EC50 (5-HT2C receptor) read?
The EC50 was < 20 nM.

What about the Emax (5-HT2C receptor) of the same molecule?
The Emax was > 70%.

What about the CLint scaled at 0.5 μM [1] of the same molecule?
The CLint scaled at 0.5 μM was 5 to 50 L/h/kg.
